Positions of bridges follow the written chain, without caps; N, C: chain ends. Non-standard residues stand in square brackets, D forms with d. Residues, ends and D or L forms follow the SMILES beside them. 2Nal = N[C@@H](Cc1ccc2ccccc2c1)C(=O)O; Dmt = Cc1cc(O)cc(C)c1C[C@H](N)C(=O)O; dOrn = NCCC[C@@H](N)C(=O)O; NMeAib = CNC(C)(C)C(=O)O; Sar = CNCC(=O)O
Tests used:
μ opioid receptors = μ opioid receptors (Cavia porcellus, UniProt P97266); assay: GPI assay: inhibition of electrically evoked contractions of the guinea pig ileum; assay type: cell-based; conditions: means of 3-6 determinations ± SEM, normalized to [Leu5]enkephalin standard, read-out: IC50 in the GPI assay (agonist potency)
Protocol: (§1) a) Bioassays based on inhibition of electrically evoked contractions of the mouse vas deferens (MVD) and of the guinea pig ileum (GPI). In the GPI assay the opioid effect is primarily mediated by μ opioid receptors, whereas in the MVD assay the inhibition of the contractions is mostly due to interaction with δ opioid receptors.
(§2) The GPI and MVD bioassays were carried out as reported in P. W. Schiller et al., Biochem. Biophys. Res. Commun 85, 1332-1338 (1978) and J. Di Maio et al., J. Med. Chem. 25, 1432-1438 (1982). A log dose-response curve was determined with [Leu^5 ] enkephalin as standard for each ileum and vas preparation, and IC50 values of the compounds being tested were normalized according to A. A. Waterfield et al., Eur. J. Pharmacol. 58, 11-18 (1979). Ke values for the cyclic β-casomorphin analogs with mixed μ agonist/δ antagonist properties (δ antagonist effect) were determined from the ratio of IC50 values (DR) obtained in the presence and absence of a fixed antagonist concentration (a) (Ke =a/(DR-1)) H. W. Kosterlitz & A. J. Watt, Br. J. Pharmacol. 33, 266-276 (1968). These determinations were made with the MVD assay, using three different δ-selective agonists ([Leu^5 ]enkephalin, DPDPE and [D-Ala^2]deltorphin I].

δ opioid receptors = biological target: T1, δ opioid receptors (Mus musculus, UniProt P32300); assay: MVD assay: inhibition of electrically evoked contractions of the mouse vas deferens (δ antagonist Ke); assay type: cell-based; conditions: means of 3-8 determinations ± SEM; for Ke in the MVD assay, antagonist potency against DPDPE: δ agonist DPDPE; for Ke in the MVD assay, antagonist potency against [D-Ala2]deltorphin I: δ agonist [D-Ala2]deltorphin I; for Ke in the MVD assay, antagonist potency against [Leu5]enkephalin: δ agonist [Leu5]enkephalin
T1 construct: Bioassays Using Isolated Organ Preparations; from tissue; host or cells: isolated mouse vas deferens
Protocol: as §1, §2

μ opioid receptor = biological target: T2, μ opioid receptor (Rattus norvegicus, UniProt P33535); assay: μ opioid receptor binding, displacement of [3H]DAMGO from rat brain membranes; conditions: [3H]DAMGO 0.7 nM, Cheng-Prusoff, means of three determinations ± SEM
T2 construct: from tissue; host or cells: rat brain membranes (cerebellum removed), Sprague-Dawley
Source text: (§3) In the case of κ-ligands guinea pig brain homogenates were used, since the relative proportion of κ-binding sites is higher in guinea pig brain than in rat brain. The experimental procedure being used in our laboratory represents a modified version of the binding assay described by Paternak et al. (Mol. Pharmacol. 11 340-351, (1975)). Male Sprague-Dawley rats (300-350 g) from the Canadian Breeding Laboratories were decapitated and after removal of the cerebellum the brains were homogenized in 30 volumes of ice-cold standard buffer (50 mM Tris-HCl, pH 7.7). After centrifugation at 30,000×g for 30 min at 4° C. the membranes were reconstituted in the original volume of standard buffer and incubated for 30 min at 37° C. (to release bound endogenous ligands). […] The incubation was terminated by filtration through Whatman GF/B filters under vacuum at 4° C. Following two washings with 5 ml portions of ice-cold standard buffer the filters were transferred to scintillation vials and treated with 1 ml Protosol (New England Nuclear) for 30 min prior to the addition of 0.5 ml acetic acid and 10 ml Aquasol (New England Nuclear). After shaking for 30 min the vials were counted at an efficiency of 40-45%. All experiments were performed in duplicates and repeated at least three times. Specific binding of each of the three radioglands was defmed by performing incubations in the presence of cold DAMGO, DSLET and U69,563, respectively, at a concentration of 1 micromolar. Values of half-maximal inhibition (IC50) of specific binding were obtained graphically from semilogarithmic plots. From the measured IC50-values, binding inhibition constants (Ki) were then calculated based on Cheng and Prussoff's equation (Biochem. Pharmacol. 22, 3099-3102 (1973)). Ratios of the Ki -values in the μ-, δ- and κ-representative bindning assays are a measure of the receptor selectivity of the compound under investigation (e.g. Ki^δ/ Ki^μ indicated the selectivity for μ-receptors versus δ-receptors).

δ opioid receptor = biological target: T3, δ opioid receptor (Rattus norvegicus, UniProt P33533); assay: δ opioid receptor binding, displacement of δ-selective radioligand from rat brain membranes; conditions: for Ki^δ/Ki^μ (selectivity for μ versus δ receptors): ratio of binding constants; for Ki: δ-selective radioligand 1.0 nM, Cheng-Prusoff, means of three determinations ± SEM
T3 construct: from tissue; host or cells: rat brain membranes (cerebellum removed), Sprague-Dawley
Source text: as §3

T3 sequence (P33533 whole entry): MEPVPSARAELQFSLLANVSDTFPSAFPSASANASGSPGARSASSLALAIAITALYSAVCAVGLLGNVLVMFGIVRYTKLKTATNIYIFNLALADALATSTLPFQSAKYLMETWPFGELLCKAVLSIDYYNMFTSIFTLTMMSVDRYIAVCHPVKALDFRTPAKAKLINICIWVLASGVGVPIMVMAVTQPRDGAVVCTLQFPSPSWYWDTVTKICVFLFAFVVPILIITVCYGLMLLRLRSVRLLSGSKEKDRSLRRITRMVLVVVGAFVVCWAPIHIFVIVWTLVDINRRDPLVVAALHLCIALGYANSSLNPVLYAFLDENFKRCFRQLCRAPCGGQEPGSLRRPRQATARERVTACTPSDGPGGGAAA
μ opioid receptors, sequence (P97266 whole entry, looked up): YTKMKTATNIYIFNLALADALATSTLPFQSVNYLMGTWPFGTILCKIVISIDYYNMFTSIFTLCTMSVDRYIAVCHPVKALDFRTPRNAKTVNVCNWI
T2 sequence (P33535 whole entry): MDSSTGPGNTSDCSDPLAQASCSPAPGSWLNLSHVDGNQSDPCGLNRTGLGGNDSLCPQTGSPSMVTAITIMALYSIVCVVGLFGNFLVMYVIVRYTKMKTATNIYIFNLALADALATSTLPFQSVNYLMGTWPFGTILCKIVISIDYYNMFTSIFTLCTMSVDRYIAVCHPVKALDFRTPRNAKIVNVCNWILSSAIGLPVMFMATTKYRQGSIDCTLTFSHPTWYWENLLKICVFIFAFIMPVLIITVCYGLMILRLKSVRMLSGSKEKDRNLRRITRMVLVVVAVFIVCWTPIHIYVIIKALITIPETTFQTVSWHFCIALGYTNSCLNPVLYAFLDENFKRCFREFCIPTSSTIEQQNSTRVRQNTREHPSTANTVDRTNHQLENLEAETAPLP
T1 sequence (P32300 whole entry): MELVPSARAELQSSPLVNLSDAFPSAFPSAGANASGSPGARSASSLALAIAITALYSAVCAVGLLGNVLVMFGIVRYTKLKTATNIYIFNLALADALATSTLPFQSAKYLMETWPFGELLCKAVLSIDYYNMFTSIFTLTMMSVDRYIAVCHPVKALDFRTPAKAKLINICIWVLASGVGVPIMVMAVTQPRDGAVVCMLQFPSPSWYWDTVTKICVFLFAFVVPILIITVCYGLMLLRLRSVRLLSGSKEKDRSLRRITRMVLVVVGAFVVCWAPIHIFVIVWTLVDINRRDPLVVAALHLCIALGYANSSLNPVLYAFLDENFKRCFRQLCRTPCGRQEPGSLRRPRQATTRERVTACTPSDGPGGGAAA

Structure (SMILES) | IC50 (μ opioid receptors) [µM] | Ke in the MVD assay, antagonist potency against DPDPE (δ opioid receptors) | Ke in the MVD assay, antagonist potency against [D-Ala2]deltorphin I (δ opioid receptors) | Ke in the MVD assay, antagonist potency against [Leu5]enkephalin (δ opioid receptors) | Ki (μ opioid receptor) [µM] | Ki^δ/Ki^μ (selectivity for μ versus δ receptors) (δ opioid receptor) | Ki (δ opioid receptor) [µM]
CC1(C)NC(=O)[C@H]2CCCN2C(=O)[C@H](Cc2ccc3ccccc3c2)NC(=O)[C@H](NC(=O)[C@@H](N)Cc2ccc(O)cc2)CCCNC1=O [Example 6, H-Tyr-c[-D-Orn-2-Nal-D-Pro-Aib-]] (HELM PEPTIDE1{Y.[O=C([C@@H](CCCN[*:3])N[*:1])[*:2]].[O=C([C@H](Cc1ccc2ccccc2c1)N[*:1])[*:2]].[dP].[Aib]}$PEPTIDE1,PEPTIDE1,2:R3-5:R2$$$V2.0) | 0.451 | 31.6 ± 2.9 | 55.8 ± 3.8 | – | – | – | –
N[C@@H](Cc1ccc(O)cc1)C(=O)N[C@@H]1CCCNC(=O)CNC(=O)[C@H]2CCCN2C(=O)[C@H](Cc2ccc3ccccc3c2)NC1=O [H-Tyr-c[-D-Orn-2-Nal-D-Pro-Gly-], reference compound] (HELM PEPTIDE1{Y.[O=C([C@@H](CCCN[*:3])N[*:1])[*:2]].[O=C([C@H](Cc1ccc2ccccc2c1)N[*:1])[*:2]].[dP].G}$PEPTIDE1,PEPTIDE1,2:R3-5:R2$$$V2.0) | 0.384 | 233 ± 28 | 202 ± 24 | 268 ± 22 | 0.00589 ± 0.0016 | 2.92 | 0.0172 ± 0.0049
CN1C(=O)[C@H]2CCCN2C(=O)[C@H](Cc2ccc3ccccc3c2)NC(=O)[C@H](NC(=O)[C@@H](N)Cc2ccc(O)cc2)CCCNC(=O)C1(C)C [Example 7, H-Tyr-c[-D-Orn-2-Nal-D-Pro-MeAib-]] (H-Y[dOrn][2Nal][dP][NMeAib]; lactam 2-C) | 0.228 | 370 ± 48 | 480 ± 84 | – | 0.0292 ± 0.0052 | 0.366 | 0.0107 ± 0.0055
Cc1cc(O)cc(C)c1C[C@H](N)C(=O)N[C@@H]1CCCNC(=O)[C@@H](C)NC(=O)[C@H]2CCCN2C(=O)[C@H](Cc2ccc3ccccc3c2)NC1=O [Example 10, H-Dmt-c[-D-Orn-2-Nal-D-Pro-D-Ala-]] (H-[Dmt][dOrn][2Nal][dP][dA]; lactam 2-C) | 0.0104 | 0.577 ± 0.022 | 0.319 ± 0.091 | – | – | – | –
C[C@H]1NC(=O)[C@H]2CCCN2C(=O)[C@H](Cc2ccc3ccccc3c2)NC(=O)[C@H](NC(=O)[C@@H](N)Cc2ccc(O)cc2)CCCNC1=O [Example 5, H-Tyr-c[-D-Orn-2-Nal-D-Pro-D-Ala-]] (HELM PEPTIDE1{Y.[O=C([C@@H](CCCN[*:3])N[*:1])[*:2]].[O=C([C@H](Cc1ccc2ccccc2c1)N[*:1])[*:2]].[dP].[dA]}$PEPTIDE1,PEPTIDE1,2:R3-5:R2$$$V2.0) | 0.6 | 5.35 ± 0.42 | 5.99 ± 1.30 | – | 0.072 ± 0.022 | 0.0105 | 0.000755 ± 0.000125
CC[C@@H](C)[C@H]1NC(=O)[C@H]2CCCN2C(=O)[C@H](Cc2ccc3ccccc3c2)NC(=O)[C@H](NC(=O)[C@@H](N)Cc2ccc(O)cc2)CCCNC1=O [Example 9, H-Tyr-c[-D-Orn-2-Nal-D-Pro-D-Ile-]] (HELM PEPTIDE1{Y.[O=C([C@@H](CCCN[*:3])N[*:1])[*:2]].[O=C([C@H](Cc1ccc2ccccc2c1)N[*:1])[*:2]].[dP].[dI]}$PEPTIDE1,PEPTIDE1,2:R3-5:R2$$$V2.0) | 0.815 | 4.88 ± 0.94 | 7.63 ± 1.48 | – | – | – | –
Cc1cc(O)cc(C)c1C[C@H](N)C(=O)N[C@@H]1CCCNC(=O)CNC(=O)[C@H]2CCCN2C(=O)[C@H](Cc2ccc3ccccc3c2)NC1=O [Example 3, H-Dmt-c[-D-Orn-2-Nal-D-Pro-Gly-]] (H-[Dmt][dOrn][2Nal][dP]G; lactam 2-C) | 0.00788 | 2.13 ± 0.51 | 3.37 ± 0.59 | 3.74 ± 1.00 | 0.00046 ± 2.2e-05 | 0.993 | 0.000457 ± 2.2e-05
CN1CC(=O)NCCC[C@@H](NC(=O)[C@@H](N)Cc2ccc(O)cc2)C(=O)N[C@@H](Cc2ccc3ccccc3c2)C(=O)N2CCC[C@@H]2C1=O [Example 2, H-Tyr-c[-D-Orn-2-Nal-D-Pro-Sar-]] (HELM PEPTIDE1{Y.[O=C([C@@H](CCCN[*:3])N[*:1])[*:2]].[O=C([C@H](Cc1ccc2ccccc2c1)N[*:1])[*:2]].[dP].[Sar]}$PEPTIDE1,PEPTIDE1,2:R3-5:R2$$$V2.0) | 0.159 | 11.2 ± 2.1 | 7.81 ± 1.90 | 17.0 ± 3.60 | 0.0148 ± 0.0007 | 0.163 | 0.00241 ± 0.00034
N[C@@H](Cc1ccc(O)cc1)C(=O)N[C@@H]1CCCCNC(=O)CNC(=O)[C@H]2CCCN2C(=O)[C@H](Cc2ccc3ccccc3c2)NC1=O [H-Tyr-c[-D-Lys-2-Nal-D-Pro-Gly-], reference compound] (HELM PEPTIDE1{Y.[dK].[O=C([C@H](Cc1ccc2ccccc2c1)N[*:1])[*:2]].[dP].G}$PEPTIDE1,PEPTIDE1,2:R3-5:R2$$$V2.0) | 0.609 | 305 ± 52 | 305 ± 52 | 603 ± 174 | 0.0171 ± 0.0026 | 3.66 | 0.0626 ± 0.0132
CC(C)[C@H]1NC(=O)[C@H]2CCCN2C(=O)[C@H](Cc2ccc3ccccc3c2)NC(=O)[C@H](NC(=O)[C@@H](N)Cc2ccc(O)cc2)CCCNC1=O [Example 8, H-Tyr-c[-D-Orn-2-Nal-D-Pro-D-Val-]] (HELM PEPTIDE1{Y.[O=C([C@@H](CCCN[*:3])N[*:1])[*:2]].[O=C([C@H](Cc1ccc2ccccc2c1)N[*:1])[*:2]].[dP].[dV]}$PEPTIDE1,PEPTIDE1,2:R3-5:R2$$$V2.0) | 0.536 | 20.9 ± 1.5 | 26.1 ± 2.8 | – | – | – | –
Cc1cc(O)cc(C)c1C[C@H](N)C(=O)N[C@@H]1CCCNC(=O)CN(C)C(=O)[C@H]2CCCN2C(=O)[C@H](Cc2ccc3ccccc3c2)NC1=O [Example 4, H-Dmt-c[-D-Orn-2-Nal-D-Pro-Sar-]] (H-[Dmt][dOrn][2Nal][dP][Sar]; lactam 2-C) | 0.0145 | 16.4 | – | – | – | – | –
CN[C@@H](Cc1ccc(O)cc1)C(=O)N[C@@H]1CCCNC(=O)CNC(=O)[C@H]2CCCN2C(=O)[C@H](Cc2ccc3ccccc3c2)NC1=O [Example 1, Tyr(NMe)-c[-D-Orn-2-Nal-D-Pro-Gly-]] (HELM PEPTIDE1{[meY].[O=C([C@@H](CCCN[*:3])N[*:1])[*:2]].[O=C([C@H](Cc1ccc2ccccc2c1)N[*:1])[*:2]].[dP].G}$PEPTIDE1,PEPTIDE1,2:R3-5:R2$$$V2.0) | 0.0925 | 45.9 ± 2.8 | 38.8 ± 5.9 | 30.8 ± 1.5 | 0.0017 ± 0.00015 | 0.765 | 0.0013 ± 0.00019
